Reference: patent publication US6075057A, “Inhibition of carbohydrates metabolism by quinone compounds” (priority 1997, dated 2000)

Key:
[1] = molecular target: T1, α-D-mannosidase (jack bean) (Canavalia ensiformis, UniProt C0HJB3); experiment: IC50 determination against α-D-mannosidase; type: biochemical; settings: hot substrate solutions
T1 construct: purchased Sigma; host or cells: jack beans
Description: Enzymatic assays with a α-D-mannosidase (jack bean) were complicated by the higher Km of the enzyme (2.04 mM) requiring higher substrate concentrations and the relative insolubility of the .rho.-nitrophenyl mannoside substrate in aqueous media. The assay had to be performed using hot solutions of the substrate which were pipetted with some expected difficulty. Nonetheless, IC50 values of >40 μM and ~10 μM were obtained for the (+)- and (-)-enantiomers of avarol respectively.
(§1) Enzymatic Assays. Piperazine-N,N'-bix-(2-ethanesulfonic acid)(PIPES) buffer, enzymes, and substrates were purchased from Sigma and used as received. Buffer solutions and enzymes (desiccated) were stored at 4° C. p-Nitrophenyl glycoside substrates were stored desiccated at -20° C. […] Reactions were monitored at 400 nm (the absorbance of the p-nitrophenol product, ε=3204.5 M^-1 cm^-1) for a given amount of time and the initial rates were calculated and expressed as μmols p-nitrophenol formed per unit enzyme per second. Absportion readings for control reactions were corrected for the small baseline absorbance at time zero. Small discrepancies between time zero absorbance readings in a given inhibition assay and a time zero reading in a control assay were used to correct the overall absorbance change calculated in the inhibition assay. […]

[2] = tested on: β-N-acetylglucosaminidase (EC 3.2.1.30); experiment: Initial screening assay for enzyme inhibition, β-N-acetylglucosaminidase; type: biochemical, bovine kidney; settings: 2% MeOH
Description: (§2) Optically pure enantiomers of avarol were synthetically prepared. A survey of potential inhibitory activity by avarol against twelve glycosidases was performed according to general procedures^15 (see experimental section). The enzymes tested and their biological sources are listed in Table 1 along with any pertinent references found for a given enzyme. In order to determine a working range for enzyme and substrate concentrations in which the rate of product formation was linear and steady-state kinetics were applicable, initial rate studies with varying substrate concentrations were performed in the absence of inhibitor. The Michaelis constants (Km 's) and Vmax values for these enzymes were determined from these plots using standard graphical analysis procedures as described in ref. 17 and are summarized in Table 2.
Enzymatic Assays. Piperazine-N,N'-bix-(2-ethanesulfonic acid)(PIPES) buffer, enzymes, and substrates were purchased from Sigma and used as received. Buffer solutions and enzymes (desiccated) were stored at 4° C. p-Nitrophenyl glycoside substrates were stored desiccated at -20° C. Enzyme inhibition assays and initial rate studies were carried out with the appropriate p-nitrophenyl glycoside substrates following the general procedure of Kajimoto et al., J. Am. Chem. Soc. 113:6187 (1991) with the exception that amyloglucosidase (EC 3.2,1.3, Asp. niger) was assayed following the method of Saul et al., Arch. Biochem. Biophys. 221:593 (1983). Assays were performed in a Perkin-Elmer Lambda Array 3840 Spectrophotometer using the built-in drive method (resolution=0.25, average=8) in a quartz cuvette (1 cm pathlength). Background absorption spectra were acquired using millipore filtered water as medium. Steady-state kinetics were maintained by adjusting the amount of enzyme used in each assay so that less than 10% of the substrate was converted to product for the duration of the reaction. Reactions were monitored at 400 nm (the absorbance of the p-nitrophenol product, ε=3204.5 M^-1 cm^-1) for a given amount of time and the initial rates were calculated and expressed as μmols p-nitrophenol formed per unit enzyme per second. Absportion readings for control reactions were corrected for the small baseline absorbance at time zero. Small discrepancies between time zero absorbance readings in a given inhibition assay and a time zero reading in a control assay were used to correct the overall absorbance change calculated in the inhibition assay. […]
(§3) Typical assay: A 1.5-mL quartz cuvette was charged with 940 μL of PIPES-NaOAc buffer solution (pH 6.56), 20 μL of inhibitor solution, and 20 μL of enzyme solution. […] The reaction was monitored at 400 nm for 1 min and the absorbance change was used to calculate the initial hydrolysis rate. […]

[3] = molecular target: T2, α-mannosidase (EC 3.2.1.24) (Canavalia ensiformis, UniProt C0HJB3); experiment: Initial screening assay for enzyme inhibition, α-mannosidase; type: biochemical, jack beans; settings: for remaining activity at 10 µM: α-mannosidase, 10 μM inhibitor, 2% MeOH, read-out: % Enzyme activity relative to control
T2 construct: 66 and 44 kDa subunits cleaved from one precursor
T2 sequence (C0HJB3 1-981): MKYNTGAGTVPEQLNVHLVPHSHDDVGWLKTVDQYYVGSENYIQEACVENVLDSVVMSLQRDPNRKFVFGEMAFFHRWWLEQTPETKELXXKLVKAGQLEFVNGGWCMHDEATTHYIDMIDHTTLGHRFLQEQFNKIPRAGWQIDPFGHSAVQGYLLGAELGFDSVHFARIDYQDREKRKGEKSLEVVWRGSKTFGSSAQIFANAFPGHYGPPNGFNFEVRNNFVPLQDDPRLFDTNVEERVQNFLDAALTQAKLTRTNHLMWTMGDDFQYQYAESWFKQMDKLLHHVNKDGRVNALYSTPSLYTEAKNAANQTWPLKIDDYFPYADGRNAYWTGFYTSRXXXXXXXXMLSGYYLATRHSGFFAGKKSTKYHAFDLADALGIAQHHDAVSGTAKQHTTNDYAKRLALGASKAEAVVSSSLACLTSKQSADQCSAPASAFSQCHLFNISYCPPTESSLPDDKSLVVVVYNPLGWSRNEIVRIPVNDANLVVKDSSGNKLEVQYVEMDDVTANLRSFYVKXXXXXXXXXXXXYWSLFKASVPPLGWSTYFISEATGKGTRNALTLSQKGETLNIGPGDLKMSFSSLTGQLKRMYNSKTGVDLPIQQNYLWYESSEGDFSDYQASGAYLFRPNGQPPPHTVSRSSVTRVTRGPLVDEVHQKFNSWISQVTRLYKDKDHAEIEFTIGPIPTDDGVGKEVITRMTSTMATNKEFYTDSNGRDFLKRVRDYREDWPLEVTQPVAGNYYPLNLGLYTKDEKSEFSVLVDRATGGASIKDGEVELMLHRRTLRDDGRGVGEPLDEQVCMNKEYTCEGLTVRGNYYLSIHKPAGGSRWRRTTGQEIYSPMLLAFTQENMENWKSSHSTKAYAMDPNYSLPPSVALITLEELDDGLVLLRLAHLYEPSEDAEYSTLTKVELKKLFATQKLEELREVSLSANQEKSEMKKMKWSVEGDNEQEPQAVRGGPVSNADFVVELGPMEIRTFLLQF
Description: as §2
Initial screening assays with the enantiomeric avarols indicated significant activity by these compounds against only two of the twelve enzymes studies. […] This can occur when the two species compete for the same site or nearby sites on the enzyme. The equilibria that describe competitive inhibition are shown below. [drawing 3]
as §1, with “Assays.” for “Assays. Piperazine-N,N'-bix-(2-ethanesulfonic acid)(PIPES) buffer, enzymes, and substrates were purchased from Sigma and used as received. Buffer solutions and enzymes (desiccated) were stored at 4° C. p-Nitrophenyl glycoside substrates were stored desiccated at -20° C.”
as §3

## CC1=CCC[C@H]2[C@](C)(Cc3cc(O)ccc3O)[C@@H](C)CC[C@]12C [(+)-avarol, (+)-Avarol]
[1]
  IC50: > 40 µM
[2]; 20 μM inhibitor
  % Enzyme activity relative to control: 102%
[3]
  remaining activity at 10 µM: 90%

## CC1=CCC[C@@H]2[C@@](C)(Cc3cc(O)ccc3O)[C@H](C)CC[C@@]12C [(-)-avarol]
[1]
  IC50: ~10 µM
[2]; 10 μM inhibitor
  % Enzyme activity relative to control: 89%
[3]; versus (+)-avarol
  activity versus naturally-occurring enantiomer, α-mannosidase (in words): significantly more active than the naturally-occurring enantiomer
[3]
  remaining activity at 10 µM: 47%
